The text below walks through data of patent US8431593B2, “Heteroaryl amide derivatives” (H. Lundbeck A/S, priority 2006, dated 2013).

For this experiment, the target named is T1, P2X7 receptor (Homo sapiens, UniProt Q99572).
T1 construct: host or cells: SH-SY5Y
T1 sequence (Q99572 1-595): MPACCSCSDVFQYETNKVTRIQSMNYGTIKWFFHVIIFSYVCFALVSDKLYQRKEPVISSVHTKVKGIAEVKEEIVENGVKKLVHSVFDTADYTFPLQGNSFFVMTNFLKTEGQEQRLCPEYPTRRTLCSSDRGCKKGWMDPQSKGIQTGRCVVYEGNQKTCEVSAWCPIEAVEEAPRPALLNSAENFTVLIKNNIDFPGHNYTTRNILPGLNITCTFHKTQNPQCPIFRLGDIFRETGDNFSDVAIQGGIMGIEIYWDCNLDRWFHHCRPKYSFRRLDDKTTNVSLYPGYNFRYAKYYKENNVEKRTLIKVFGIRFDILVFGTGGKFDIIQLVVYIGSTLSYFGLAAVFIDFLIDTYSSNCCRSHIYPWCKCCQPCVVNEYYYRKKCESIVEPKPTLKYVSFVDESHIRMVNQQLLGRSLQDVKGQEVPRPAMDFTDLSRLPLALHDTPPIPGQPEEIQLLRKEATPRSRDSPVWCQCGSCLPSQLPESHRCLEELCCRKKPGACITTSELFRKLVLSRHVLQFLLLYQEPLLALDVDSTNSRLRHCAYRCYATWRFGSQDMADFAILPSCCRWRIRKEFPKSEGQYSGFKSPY
Kind of experiment: P2X7 calcium mobilization assay, high throughput, antagonist activity (Example 4A). The class given is cell-based. As to the method: One day prior to the experiment, cells are plated at a density of 100,000 cells/well in a 96 well black/clear TC plate (Corning® Costar®, Sigma-Aldrich Co., St. Louis, Mo.). […] After one hour dye incubation, wells are rinsed once with 50 μL assay solution, and are then incubated for an hour at room temperature with 100 μL assay solution containing the test compound. […] After the one hour incubation, plates are transferred to a FLIPR^TETRA instrument (Molecular Devices, Sunnyvale, Calif.) for calcium mobilization analysis.
First, the average maximum relative fluorescent unit (RFU) response from the negative control wells (no agonist) is subtracted from the maximum response detected for each of the other experimental wells. Second, average maximum RFU response is calculated for the positive control wells (agonist wells).

[1] abbreviates: SH-SY5Y cells, 50% decrease in fluorescence response to 80 μM BzATP, read-out: IC50.

Molecules are shown by their SMILES. Like-named read-outs stand apart in the source and are kept apart here.

A word on the IC50: it is the concentration that gives 50% inhibition. In the case of `CC(C)(C)OC(=O)N[C@@H]1CCN(Cc2cn3c(C(=O)NCC(CC4CCCC4)c4ccccc4)cccc3n2)C1` (stereo in doubt) [Compound 784, tert-butyl [1-({5-[(3-cyclopentyl-2-phenylpropyl)carbamoyl]imidazo[1,2-a]pyridin-2-yl}methyl)pyrrolidin-3-yl]carbamate], the IC50 (50% decrease in the fluorescence response of cells exposed to 80 μM of 2′(3′)-O-(4-benzoyl-benzoyl)adenosine 5′-triphosphate, Example 4A, read-out: IC50) was below 2000 nM. Turning to `O=C(NCC12CC3CC(CC(C3)C1)C2)c1cccc2nccn12` [Compound 1, N-(adamantan-1-ylmethyl)imidazo[1,2-a]pyridine-5-carboxamide], under setting [1], the IC50 is below 2000 nM. With `CCOC(=O)c1cn2c(C(=O)NCC34CC5CC(CC(C5)C3)C4)cccc2n1` [Compound 2, ethyl 5-[(adamantan-1-ylmethyl)carbamoyl]imi-dazo[1,2-a]pyridine-2-carboxylate], the IC50 was below 2000 nM. On the same count and under the same terms, under `O=C(NCC12CC3CC(CC(C3)C1)C2)c1cccc2nc(CO)cn12` [Compound 3, N-(adamantan-1-ylmethyl)-2-(hydroxymethyl)imi-dazo[1,2-a]pyridine-5-carboxamide] stands below 2000 nM; under `CCOC(=O)Cc1cn2c(C(=O)NCC34CC5CC(CC(C5)C3)C4)cccc2n1` [Compound 4, ethyl {5-[(adamantan-1-ylmethyl)carbamoyl]imi-dazo[1,2-a]pyridin-2-yl}acetate], below 2000 nM. As to `O=C(NCC12CC3CC(CC(C3)C1)C2)c1cccc2nc(CN3CCNCC3)cn12` [Compound 5, N-(adamantan-1-ylmethyl)-2-(piperazin-1-ylmethyl)imidazo[1,2-a]pyridine-5-carboxamide], under setting [1], the IC50 is below 2000 nM. With `O=C(NCC12CC3CC(CC(C3)C1)C2)c1cccc2nc(CCO)cn12` [Compound 6, N-(adamantan-1-ylmethyl)-2-(2-hydroxyethyl)imi-dazo[1,2-a]pyridine-5-carboxamide], the IC50 was below 2000 nM. In the case of `CCOC(=O)c1cn2c(C(=O)NCC34CC5CC(CC(C5)C3)C4)c(Cl)ccc2n1` [Compound 7, 5-[(adamantan-1-ylmethyl)-carbamoyl]-6-chloro-imidazo[1,2-a]pyridine-2-carboxylic acid ethyl ester], the IC50 under setting [1] is below 2000 nM. For the compound `O=C(NCCO)c1cn2c(C(=O)NCC34CC5CC(CC(C5)C3)C4)cccc2n1` [Compound 8, 5-N-(adamantan-1-ylmethyl)--(2-hydroxyethyl)imi-dazo[1,2-a]pyridine-2,5-dicarboxamide], the IC50 is below 2000 nM. For the compound `CN(CCO)C(=O)c1cn2c(C(=O)NCC34CC5CC(CC(C5)C3)C4)cccc2n1` [Compound 9, 5-N-(adamantan-1-ylmethyl)--(2-hydroxyethyl)-- methylimidazo[1,2-a]pyridine-2,5-dicarboxamide], the IC50 under setting [1] is below 2000 nM. Regarding `CC(C)CNCc1cn2c(C(=O)NCC34CC5CC(CC(C5)C3)C4)cccc2n1` [Compound 12, N-(adamantan-1-ylmethyl)-2-[(isobutyl-amino)methyl]imi-dazo[1,2-a]pyridine-5-carboxamide], the IC50 was below 2000 nM. Take `O=C(NCC12CC3CC(CC(C3)C1)C2)c1cccc2nc(CN3CCN(CCO)CC3)cn12` [Compound 13, N-(adamantan-1-ylmethyl)-2-{[4-(2-hydroxyethyl)piperazin-1-yl]methyl}imi-dazo[1,2-a]pyridine-5-carboxamide]: the IC50 is below 2000 nM. In the case of `CCOC(=O)c1nc2cccc(C(=O)NCC34CC5CC(CC(C5)C3)C4)n2c1Cl` [Compound 15, ethyl 5-[(adamantan-1-ylmethyl)carbamoyl]-3-chloroimidazo[1,2-a]pyridine-2-carboxylate], under setting [1], the IC50 was below 2000 nM.

`O=C(O)Cc1cn2c(C(=O)NCC34CC5CC(CC(C5)C3)C4)cccc2n1` [Compound 16, {5-[(adamantan-1-ylmethyl)carbamoyl]imi-dazo[1,2-a]pyridin-2-yl}acetic acid]: the IC50 was below 2000 nM. For the compound `CCNC(=O)Cc1cn2c(C(=O)NCC34CC5CC(CC(C5)C3)C4)cccc2n1` [Compound 17, N-(adamantan-1-ylmethyl)-2-[2-(ethylamino)-2-oxoethyl]imidazo[1,2-a]pyridine-5-carboxamide], the IC50 under setting [1] is below 2000 nM. Consider `CC(C)CNC(=O)Cc1cn2c(C(=O)NCC34CC5CC(CC(C5)C3)C4)cccc2n1` [Compound 18, N-(adamantan-1-ylmethyl)-2-[2 (isobutylamino)-2-oxoethyl]imidazo[1,2-a]pyridine-5-carboxamide], for which the IC50 under setting [1] was below 2000 nM.

Turning to `CN(C)C(=O)CNC(=O)Cc1cn2c(C(=O)NCC34CC5CC(CC(C5)C3)C4)cccc2n1` [Compound 20, N-(adamantan-1-ylmethyl)-2-(2-{[2-(dimethylamino)-2-oxoethyl]amino}-2-oxoethyl)imidazo[1,2-a]pyridine-5-carboxamide], the IC50 under setting [1] is below 2000 nM. In the case of `NC(=O)CNC(=O)Cc1cn2c(C(=O)NCC34CC5CC(CC(C5)C3)C4)cccc2n1` [Compound 24, N-(adamantan-1-ylmethyl)-2-{2-[(2-amino-2-oxoethyl)amino]-2-oxoethyl}imidazo[1,2-a]pyridine-5-carboxamide], under setting [1], the IC50 was below 2000 nM. `CC(NC(=O)Cc1cn2c(C(=O)NCC34CC5CC(CC(C5)C3)C4)cccc2n1)C(N)=O` (stereo not shown) [Compound 25, N-(adamantan-1-ylmethyl)-2-{2-[(2-amino-1-methyl-2-oxoethyl)amino]-2-oxoethyl}imidazo[1,2-a]pyridine-5-carboxamide]: under setting [1], the IC50 was below 2000 nM.

Consider `O=C(Cc1cn2c(C(=O)NCC34CC5CC(CC(C5)C3)C4)cccc2n1)NCCO` [Compound 26, N-(adamantan-1-ylmethyl)-2-{2-[(2-hydroxyethyl)amino]-2-oxoethyl}imidazo[1,2-a]pyridine-5-carboxamide], for which the IC50 under setting [1] is below 2000 nM.

For `O=C(Cc1cn2c(C(=O)NCC34CC5CC(CC(C5)C3)C4)cccc2n1)NCCCO` [Compound 27, N-(adamantan-1-ylmethyl)-2-{2-[(3-hydroxypropyl)amino]-2-oxoethyl}imi-dazo[1,2-a]pyridine-5-carboxamide], the IC50 is below 2000 nM. On to `C[C@@H](O)CNC(=O)Cc1cn2c(C(=O)NCC34CC5CC(CC(C5)C3)C4)cccc2n1` [Compound 28, N-(adamantan-1-ylmethyl)-2-(2-{[(2R)-2-hydroxy-propyl]amino}-2-oxoethyl)imi-dazo[1,2-a]pyridine-5-carboxamide], for which the IC50 is below 2000 nM. Take `C[C@H](O)CNC(=O)Cc1cn2c(C(=O)NCC34CC5CC(CC(C5)C3)C4)cccc2n1` [Compound 29, N-(adamantan-1-ylmethyl)-2-(2-{[(2S)-2-hydroxy-propyl]amino}-2-oxoethyl)imi-dazo[1,2-a]pyridine-5-carboxamide]: the IC50 is below 2000 nM. For `CCC(O)CNC(=O)Cc1cn2c(C(=O)NCC34CC5CC(CC(C5)C3)C4)cccc2n1` (stereo not shown) [Compound 30, N-(adamantan-1-ylmethyl)-2-{2-[(2-hydroxy-butyl)amino]-2-oxoethyl}imi-dazo[1,2-a]pyridine-5-carboxamide], the IC50 is below 2000 nM. As to `CC(O)CCNC(=O)Cc1cn2c(C(=O)NCC34CC5CC(CC(C5)C3)C4)cccc2n1` (stereo not shown) [Compound 31, N-(adamantan-1-ylmethyl)-2-{2-[(3-hydroxybutyl)amino]-2-oxoethyl}imidazo[1,2-a]pyridine-5-carboxamide], the IC50 under setting [1] is below 2000 nM.
